The source made the active and inactive calls. No cut-off for these calls is given here.
Assays:
Hep 3B2 [1] = test: Inhibition of IL-6-induced IL-1beta gene expression in human Hep3B cells pre-incubated for 1 hr before IL-6 stimulation for 6 hrs by RT-PCR method; type: functional, cell-based
[2] = molecular target: Signal transducer and activator of transcription 3 (Homo sapiens) (UniProt P40763); test: Inhibition of IL6-induced STAT3 phosphorylation in human Hep3B cells incubated for 12 hrs in presence of IL6 by luciferase reporter gene assay; type: cell-based
Signal transducer and activator of transcription 3 (Homo sapiens), sequence (P40763 whole entry): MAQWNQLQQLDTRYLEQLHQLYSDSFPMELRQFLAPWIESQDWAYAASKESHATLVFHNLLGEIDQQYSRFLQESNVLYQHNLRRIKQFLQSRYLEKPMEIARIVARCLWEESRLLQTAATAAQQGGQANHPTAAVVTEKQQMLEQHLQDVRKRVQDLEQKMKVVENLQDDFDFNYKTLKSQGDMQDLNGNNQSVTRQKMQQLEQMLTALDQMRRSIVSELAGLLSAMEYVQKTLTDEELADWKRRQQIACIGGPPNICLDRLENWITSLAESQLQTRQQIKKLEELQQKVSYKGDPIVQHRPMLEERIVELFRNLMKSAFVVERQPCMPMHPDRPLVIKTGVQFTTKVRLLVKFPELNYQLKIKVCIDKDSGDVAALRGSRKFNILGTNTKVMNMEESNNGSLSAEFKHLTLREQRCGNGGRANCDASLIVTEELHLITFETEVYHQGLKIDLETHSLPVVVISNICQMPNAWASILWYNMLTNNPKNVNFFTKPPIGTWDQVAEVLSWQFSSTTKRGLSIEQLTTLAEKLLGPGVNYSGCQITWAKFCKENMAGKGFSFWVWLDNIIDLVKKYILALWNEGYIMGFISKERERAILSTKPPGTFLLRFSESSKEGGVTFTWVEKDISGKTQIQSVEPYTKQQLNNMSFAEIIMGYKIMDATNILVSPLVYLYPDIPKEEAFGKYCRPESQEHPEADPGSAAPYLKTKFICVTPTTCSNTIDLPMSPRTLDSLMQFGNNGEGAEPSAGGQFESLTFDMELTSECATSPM

Hep 3B2 [3] = test: Cytotoxicity against human Hep3B cells assessed as cell viability at 1 to 20 uM incubated for 24 hrs by MTT assay; type: cell-based; details: hep 3b2, 24 h
[4] = molecular target: Signal transducer and activator of transcription 3 (Homo sapiens) (UniProt P40763); test: Inhibition of IL-6-induced STAT3 phosphorylation at Tyr 705 residue in human U266 cells at 10 to 20 uM pre-incubated for 1 hr before IL-6 stimulation for 15 mins by Western blot analysis; type: cell-based
[5] = molecular target: Signal transducer and activator of transcription 3 (Homo sapiens) (UniProt P40763); test: Inhibition of IL-6-induced pSTAT3 nuclear translocation in human Hep3B cells at 10 and 20 uM pre-incubated for 1 hr before IL-6 stimulation for 30 mins by DAPI staining based immunofluorescence microscopy; type: cell-based
Hep 3B2 [6] = test: Inhibition of IL-6-induced CRP gene expression in human Hep3B cells pre-incubated for 1 hr before IL-6 stimulation for 6 hrs by RT-PCR method; type: functional, cell-based
[7] = molecular target: Tyrosine-protein kinase JAK2 (Homo sapiens) (UniProt O60674); test: Inhibition of IL-6-induced JAK2 phosphorylation at Tyr1007/1008 residues in human U266 cells at 10 and 20 uM pre-incubated for 1 hr before IL-6 stimulation for 10 to 15 mins by Western blot analysis; type: cell-based
Tyrosine-protein kinase JAK2 (Homo sapiens), sequence (O60674 whole entry): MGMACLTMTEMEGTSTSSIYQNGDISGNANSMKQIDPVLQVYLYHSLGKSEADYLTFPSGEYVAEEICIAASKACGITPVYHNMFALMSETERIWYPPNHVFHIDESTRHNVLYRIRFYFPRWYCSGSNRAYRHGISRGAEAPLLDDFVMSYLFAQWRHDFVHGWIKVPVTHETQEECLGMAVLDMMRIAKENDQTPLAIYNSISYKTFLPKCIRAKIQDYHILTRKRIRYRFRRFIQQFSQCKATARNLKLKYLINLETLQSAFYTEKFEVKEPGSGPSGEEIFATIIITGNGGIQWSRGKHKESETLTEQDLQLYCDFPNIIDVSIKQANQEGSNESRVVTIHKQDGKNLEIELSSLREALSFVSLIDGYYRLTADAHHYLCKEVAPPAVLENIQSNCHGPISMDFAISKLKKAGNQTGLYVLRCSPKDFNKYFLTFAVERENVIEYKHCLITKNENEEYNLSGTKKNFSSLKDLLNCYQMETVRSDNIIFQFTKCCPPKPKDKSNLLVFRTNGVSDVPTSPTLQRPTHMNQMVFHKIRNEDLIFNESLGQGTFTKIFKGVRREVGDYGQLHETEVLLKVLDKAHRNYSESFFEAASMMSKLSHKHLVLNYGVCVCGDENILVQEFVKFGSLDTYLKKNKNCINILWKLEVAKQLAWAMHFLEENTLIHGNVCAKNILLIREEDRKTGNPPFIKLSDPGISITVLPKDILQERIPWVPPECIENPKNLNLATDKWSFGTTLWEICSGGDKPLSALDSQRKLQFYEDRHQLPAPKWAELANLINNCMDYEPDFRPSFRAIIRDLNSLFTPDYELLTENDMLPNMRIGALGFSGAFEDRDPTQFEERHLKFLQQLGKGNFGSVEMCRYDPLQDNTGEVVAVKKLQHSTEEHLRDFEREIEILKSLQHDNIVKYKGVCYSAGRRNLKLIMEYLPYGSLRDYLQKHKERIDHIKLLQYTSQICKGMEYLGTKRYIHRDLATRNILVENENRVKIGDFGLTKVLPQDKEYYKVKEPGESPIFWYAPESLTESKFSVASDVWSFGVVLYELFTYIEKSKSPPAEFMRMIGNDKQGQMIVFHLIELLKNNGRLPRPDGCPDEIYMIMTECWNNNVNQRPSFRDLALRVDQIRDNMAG

Hep 3B2 [8] = test: Inhibition of IL-6-induced ICAM1 gene expression in human Hep3B cells pre-incubated for 1 hr before IL-6 stimulation for 6 hrs by RT-PCR method; type: functional, cell-based
[9] = molecular target: T1, Interleukin-6 receptor subunit beta (Homo sapiens) (UniProt P40189); test: Inhibition of IL-6-induced gp130 phosphorylation in human U266 cells at 10 and 20 uM pre-incubated for 1 hr before IL-6 stimulation for 10 to 15 mins by Western blot analysis; type: cell-based
T1 sequence (whole entry): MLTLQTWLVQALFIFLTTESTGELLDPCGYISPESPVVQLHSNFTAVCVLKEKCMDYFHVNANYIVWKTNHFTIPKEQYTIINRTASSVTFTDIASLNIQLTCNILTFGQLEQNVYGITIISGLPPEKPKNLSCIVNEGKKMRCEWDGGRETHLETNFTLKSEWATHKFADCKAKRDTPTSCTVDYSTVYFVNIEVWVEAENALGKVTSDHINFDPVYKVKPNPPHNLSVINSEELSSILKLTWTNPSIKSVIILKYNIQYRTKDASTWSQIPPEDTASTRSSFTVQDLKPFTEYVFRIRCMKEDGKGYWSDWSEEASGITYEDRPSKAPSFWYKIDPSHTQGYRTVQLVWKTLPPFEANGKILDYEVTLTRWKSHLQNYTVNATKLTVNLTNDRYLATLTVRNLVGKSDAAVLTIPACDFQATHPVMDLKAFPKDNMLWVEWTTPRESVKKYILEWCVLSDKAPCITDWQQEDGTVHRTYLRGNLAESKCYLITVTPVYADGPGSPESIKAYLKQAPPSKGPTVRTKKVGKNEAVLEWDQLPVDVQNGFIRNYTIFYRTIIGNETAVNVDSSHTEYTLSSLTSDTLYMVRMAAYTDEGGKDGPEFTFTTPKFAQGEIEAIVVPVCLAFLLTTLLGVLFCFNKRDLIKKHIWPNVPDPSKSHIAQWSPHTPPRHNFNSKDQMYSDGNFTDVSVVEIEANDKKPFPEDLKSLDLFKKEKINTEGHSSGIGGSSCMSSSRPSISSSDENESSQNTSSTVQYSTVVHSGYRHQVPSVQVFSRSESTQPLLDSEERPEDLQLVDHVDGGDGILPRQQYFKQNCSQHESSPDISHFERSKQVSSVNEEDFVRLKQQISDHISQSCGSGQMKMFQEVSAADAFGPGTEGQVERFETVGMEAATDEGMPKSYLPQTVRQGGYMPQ

Homo sapiens [10] = organism: Homo sapiens; test: Inhibition of IL-6-induced ERK phosphorylation at Tyr202/204 residues in human U266 cells at 10 to 20 uM pre-incubated for 1 hr before IL-6 stimulation for 10 to 15 mins by Western blot analysis; type: cell-based
Hep 3B2 [11] = test: Inhibition of IL-6-induced SOCS3 gene expression in human Hep3B cells pre-incubated for 1 hr before IL-6 stimulation for 6 hrs by RT-PCR method; type: functional, cell-based
[12] = molecular target: Signal transducer and activator of transcription 3 (Homo sapiens) (UniProt P40763); test: Inhibition of IL-6-induced pSTAT3 nuclear translocation in human U266 cells at 20 uM pre-incubated for 1 hr before IL-6 stimulation for 30 mins by DAPI staining based immunofluorescence microscopy; type: cell-based
Homo sapiens [13] = organism: Homo sapiens; test: Inhibition of IL-6 binding to human recombinant soluble IL-6R incubated for 2 hrs by solid phase ligand binding assay

- inhibition [2]: Dose-dependent effect
- inhibition [4]: Active
- inhibition [5]: Active
- inhibition [7]: Dose-dependent effect
- inhibition [9]: Dose-dependent effect
- inhibition [12]: Active
- inhibition (Homo sapiens [13]): inactive
Structure (SMILES): COc1cc2oc(-c3ccc(O)c(O)c3)cc(=O)c2c(O)c1OC [CIRSILIOL]
- inhibition (Hep 3B2 [1]): Dose-dependent effect
- Activity (Hep 3B2 [3]): Non-Toxic
- inhibition (Hep 3B2 [6]): Dose-dependent effect
- inhibition (Hep 3B2 [8]): Dose-dependent effect
- inhibition (Homo sapiens [10]): Active
- inhibition (Hep 3B2 [11]): Dose-dependent effect

— ChEMBL document CHEMBL4387725, “In vitro inhibitory effects of cirsiliol on IL-6-induced STAT3 activation through anti-inflammatory activity” (Bioorg Med Chem Lett, 2019)
